Test results from patent US8975291B2, “Indoles” (GlaxoSmithKline LLC, priority 2010, dated 2015).

Target: T1, EZH2 within the PRC2 complex (Homo sapiens, UniProt Q15910)
T1 construct: FLAG; made in house; host or cells: Sf9 cells
Assay: EZH2 methyltransferase scintillation proximity assay (SPA) with PRC2 complex
Type: biochemical
Conditions: 3H-SAM methyl transfer to Histone H3 of HeLa mononucleosomes; read-out: EZH2 pIC50 (converted)
Description: Compounds contained herein were evaluated for their ability to inhibit the methyltransferase activity of EZH2 within the PRC2 complex. Human PRC2 complex was prepared by co-expressing each of the 5 member proteins (FLAG-EZH2, EED, SUZ12, RbAp48, AEBP2) in Sf9 cells followed by co-purification. Enzyme activity was measured in a scintillation proximity assay (SPA) where a tritiated methyl group is transferred from 3H-SAM to a lysine residue on Histone H3 of a mononucleosome, purified from HeLa cells. Mononucleosomes were captured on SPA beads and the resulting signal is read on a ViewLux plate reader.
Part A. Compound Preparation
• 1. Prepare 10 mM stock of compounds from solid in 100% DMSO. • 2. Set up an 11-point serial dilution (1:3 dilution, top concentration 10 mM) in 100% DMSO for each test compound in a 384 well plate leaving columns 6 and 18 for DMSO controls. • 3. Dispense […] of compound from the dilution plate into reaction plates (Grenier Bio-One, 384-well, Cat #784075). Part B. Reagent Preparation Prepare the following solutions: • 1. 50 mM Tris-HCl, pH 8: Per 1 L of base buffer, combine 1 M Tris-HCl, pH 8 (50 mL) and distilled water (950 mL). • 2. […] 2× Enzyme Solution: Per 10 mL of 2× Enzyme Solution, combine 1× Assay Buffer and PRC2 complex to provide a final enzyme concentration of 10 nM. • 4. SPA Bead Suspension: Per 1 mL of SPA Bead Suspension, combine PS-PEI coated LEADSeeker beads (40 mg) and ddH2O (1 mL) to provide a final concentration of 40 mg/mL. • 5. 2× Substrate Solution: Per 10 mL of 2× Substrate Solution, combine 1× Assay Buffer (9728.55 uL), 800 ug/mL mononucleosomes (125 uL), 1 mM cold SAM (4 uL), and 7.02 uM 3H-SAM (142.45 uL; 0.55 mCi/mL) to provide a final concentration of 5 ug/mL nucleosomes, 0.2 uM cold SAM, and 0.05 uM 3H-SAM. • 6. 2.67× Quench/Bead Mixture: Per 10 mL of 2.67× Quench/Bead Mixture, combine ddH2O (9358 uL), 10 mM cold SAM (267 uL), 40 mg/mL Bead Suspension (375 uL) to provide a final concentration of 100 uM cold SAM and 0.5 mg/mL SPA beads. Part C. Assay Reaction in 384-well Grenier Bio-One Plates Compound Addition • 1. Dispense […] of 100× Compound to test wells (as noted above). • 2. Dispense […] of 100% DMSO to columns 6 & 18 for high and low controls, respectively. Assay • 1. […] Dispense 5 uL/well of 2× Enzyme Solution to columns 1-17, 19-24. • 3. Spin assay plates for ˜1 minute at 500 rpm. • 4. Stack the assay plates, covering the top plate. • 5. Incubate the compound/DMSO with the enzyme for 30 minutes at room temperature. • 6. Dispense 5 uL/well of 2× Substrate Solution to columns 1-24. • 7. Spin assay plates for ˜1 minute at 500 rpm. • 8. Stack the assay plates, covering the top plate. • 9. Incubate the assay plates at room temperature for 1 hour. Quench/Bead Addition • 1. Dispense 5 uL/well of the 3× Quench/Bead Mixture to columns 1-24. • 2. Seal the top of each assay plate with adhesive TopSeal. • 3. Spin assay plates for ˜1 minute at 500 rpm. • 4. Equilibrate the plates for >20 min. Read Plates • 1. Read the assay plates on the Viewlux Plate Reader utilizing the 613 nm emission filter with a 300 s read time. Reagent addition can be done manually or with automated liquid handler. • The final DMSO concentration in this assay is 1%. • The positive control is in column 6; negative control is in column 18. • Final starting concentration of compounds is 100 μM. Part D. Data Analysis
Percent inhibition was calculated relative to the DMSO control for each compound concentration and the resulting values were fit using standard IC50 fitting parameters within the ABASE data fitting software package.

T1 sequence (Q15910 whole entry): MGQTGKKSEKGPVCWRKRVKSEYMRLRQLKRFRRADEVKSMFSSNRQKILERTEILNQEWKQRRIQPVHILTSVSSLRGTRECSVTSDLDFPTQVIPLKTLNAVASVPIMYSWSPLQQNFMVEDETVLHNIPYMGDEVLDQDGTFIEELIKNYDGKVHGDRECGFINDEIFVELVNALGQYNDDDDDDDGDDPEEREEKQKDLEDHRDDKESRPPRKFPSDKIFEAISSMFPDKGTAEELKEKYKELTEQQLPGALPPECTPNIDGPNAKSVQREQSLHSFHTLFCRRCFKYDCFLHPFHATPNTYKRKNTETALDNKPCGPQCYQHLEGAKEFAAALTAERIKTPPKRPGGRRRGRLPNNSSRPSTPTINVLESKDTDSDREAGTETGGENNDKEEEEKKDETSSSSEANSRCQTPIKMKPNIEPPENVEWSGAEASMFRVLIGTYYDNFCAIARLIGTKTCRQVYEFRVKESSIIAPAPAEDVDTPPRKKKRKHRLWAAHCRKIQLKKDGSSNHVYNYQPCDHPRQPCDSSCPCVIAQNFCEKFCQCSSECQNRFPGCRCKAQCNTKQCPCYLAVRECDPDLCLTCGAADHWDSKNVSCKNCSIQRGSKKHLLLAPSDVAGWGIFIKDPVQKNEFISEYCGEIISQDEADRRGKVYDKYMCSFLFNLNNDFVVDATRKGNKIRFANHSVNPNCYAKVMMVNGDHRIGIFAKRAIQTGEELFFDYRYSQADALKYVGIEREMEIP
T1 sequence (O75530 whole entry partner): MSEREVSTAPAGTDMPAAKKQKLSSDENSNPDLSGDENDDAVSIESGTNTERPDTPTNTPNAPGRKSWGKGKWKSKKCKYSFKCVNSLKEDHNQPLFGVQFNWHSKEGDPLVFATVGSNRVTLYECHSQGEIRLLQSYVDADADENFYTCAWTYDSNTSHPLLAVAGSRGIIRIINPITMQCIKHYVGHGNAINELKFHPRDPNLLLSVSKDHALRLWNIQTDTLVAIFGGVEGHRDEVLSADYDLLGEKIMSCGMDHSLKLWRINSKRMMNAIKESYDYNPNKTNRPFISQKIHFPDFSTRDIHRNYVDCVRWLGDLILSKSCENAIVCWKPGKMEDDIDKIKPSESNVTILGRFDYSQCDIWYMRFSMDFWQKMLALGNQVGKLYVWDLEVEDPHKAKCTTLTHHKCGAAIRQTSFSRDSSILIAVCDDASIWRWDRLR
T1 sequence (Q15022 whole entry partner): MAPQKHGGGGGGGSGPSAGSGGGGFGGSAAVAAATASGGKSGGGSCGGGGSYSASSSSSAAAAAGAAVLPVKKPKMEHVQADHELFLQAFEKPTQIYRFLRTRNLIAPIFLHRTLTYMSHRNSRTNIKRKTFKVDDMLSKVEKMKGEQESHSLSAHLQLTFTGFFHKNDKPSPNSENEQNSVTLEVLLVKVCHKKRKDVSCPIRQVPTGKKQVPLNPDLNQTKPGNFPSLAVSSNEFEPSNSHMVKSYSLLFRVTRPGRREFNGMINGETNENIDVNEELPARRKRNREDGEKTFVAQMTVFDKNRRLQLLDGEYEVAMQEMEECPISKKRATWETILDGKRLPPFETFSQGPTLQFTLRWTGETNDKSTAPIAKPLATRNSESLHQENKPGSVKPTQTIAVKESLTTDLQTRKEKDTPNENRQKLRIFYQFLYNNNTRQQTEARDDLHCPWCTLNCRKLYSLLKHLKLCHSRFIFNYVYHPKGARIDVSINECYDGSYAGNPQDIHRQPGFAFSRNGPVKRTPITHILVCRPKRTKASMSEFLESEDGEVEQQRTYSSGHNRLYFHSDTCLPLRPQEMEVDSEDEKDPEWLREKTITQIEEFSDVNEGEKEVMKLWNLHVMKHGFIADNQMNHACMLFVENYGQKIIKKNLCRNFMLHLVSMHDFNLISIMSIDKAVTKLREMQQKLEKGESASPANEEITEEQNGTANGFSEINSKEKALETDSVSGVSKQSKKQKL
T1 sequence (Q09028 whole entry partner): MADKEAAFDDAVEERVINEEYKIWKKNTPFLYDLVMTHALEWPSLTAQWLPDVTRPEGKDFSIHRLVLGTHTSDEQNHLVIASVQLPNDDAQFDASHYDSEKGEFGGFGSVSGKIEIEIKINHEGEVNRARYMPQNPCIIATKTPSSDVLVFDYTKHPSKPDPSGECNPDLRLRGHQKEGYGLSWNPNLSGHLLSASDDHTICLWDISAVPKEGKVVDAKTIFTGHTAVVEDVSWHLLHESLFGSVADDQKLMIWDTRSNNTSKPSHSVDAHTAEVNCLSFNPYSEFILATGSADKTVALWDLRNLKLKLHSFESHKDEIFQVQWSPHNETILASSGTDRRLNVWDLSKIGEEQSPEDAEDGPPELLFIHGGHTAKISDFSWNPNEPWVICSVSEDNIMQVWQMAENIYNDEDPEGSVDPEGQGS
T1 sequence (Q6ZN18 whole entry partner): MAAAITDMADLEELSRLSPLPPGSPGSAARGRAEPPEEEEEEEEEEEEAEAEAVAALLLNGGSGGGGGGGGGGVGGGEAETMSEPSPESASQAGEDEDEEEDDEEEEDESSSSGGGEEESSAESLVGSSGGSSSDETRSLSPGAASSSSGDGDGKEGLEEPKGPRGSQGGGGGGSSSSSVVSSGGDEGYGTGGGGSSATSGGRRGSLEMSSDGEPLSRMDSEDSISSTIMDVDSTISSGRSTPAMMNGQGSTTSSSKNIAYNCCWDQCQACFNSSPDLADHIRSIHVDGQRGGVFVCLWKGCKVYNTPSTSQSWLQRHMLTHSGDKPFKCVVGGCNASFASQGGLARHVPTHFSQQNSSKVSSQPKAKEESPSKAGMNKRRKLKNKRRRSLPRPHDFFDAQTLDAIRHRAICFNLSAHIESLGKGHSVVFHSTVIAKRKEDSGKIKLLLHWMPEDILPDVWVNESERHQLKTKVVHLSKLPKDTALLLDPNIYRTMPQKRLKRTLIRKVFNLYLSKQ

Row | IC50 | SMILES
1 | 129 nM | Cc1cc(C)c(CNC(=O)c2cc(NC(=O)N3CCN(C)CC3)cc3c2c(C)cn3C(C)C)c(=O)[nH]1 [Example 362, N-[(4,6-dimethyl-2-oxo-1,2-dihydro-3-pyridinyl)methyl]-3-methyl-1-(1-methylethyl)-6-{[(4-methyl-1-piperazinyl)carbonyl]amino}-1H-indole-4-carboxamide]
2 | 58.9 nM | Cc1cc(C)c(CNC(=O)c2cc(-c3ccc(CO)nc3)cc3c2c(C)cn3C(C)C)c(=O)[nH]1 [Example 359, N-[(4,6-dimethyl-2-oxo-1,2-dihydro-3-pyridinyl)methyl]-6-[6-(hydroxymethyl)-3-pyridinyl]-3-methyl-1-(1-methylethyl)-1H-indole-4-carboxamide]
